US20160220567A1, “COMPOSITION FOR TREATING OR PREVENTING BONE DISEASES, COMPRISING HALOFUGINONE AS ACTIVE INGREDIENT” (THE CATHOLIC UNIVERSITY OF KOREA INDUSTRY-ACADEMIC …, priority 2013, published 2016)

Assays:
[1] = system: anti-CII-specific IgG, IgG1, and IgG2a; test: Type II collagen-specific IgG, IgG1 and IgG2a in sera by ELISA; format: in vivo, mouse; conditions: CIA mice, sera 4 weeks after injection, FIG. 1D
Protocol: (§1) For the construction of a mouse model with collagen-induced arthritis (hereinafter, referred to as “CIA”), a 6-week old male DBA/1J mouse was subjected to primary immunization by intradermal injection after mixing the bovine type II collagen (hereinafter, referred to as “CII”) and complete Freud's adjuvant (CFA) in an amount of 100 μL, respectively. After a week thereafter, halofuginone was injected intraperitoneally at 3 day intervals at a concentration of 100 μg/kg and 500 μg/kg, respectively (9 weeks).
The concentrations of murine anti-CII-specific IgG, IgG1, and IgG2a were measured by ELISA method by collecting sera from a mouse with arthritis 4 weeks after injecting the mouse with halofuginone (Bethyl Lab Co., Montgomery, Tex., USA). The group treated with a solution in which DMSO was diluted in saline was used as the control group.
The method of measuring the anti-CII-specific IgG, IgG1, and IgG2a antibodies is as follows. The CII was diluted in 0.05M sodium carbonate coating buffer (pH 9.6) at a concentration of 4 μg/mL, coated onto a 96-well microtiter plate, and placed at 4° C. for 18 hours. After removing the coated solution, for the inhibition of non-specific binding, TBS (pH 8.0) containing 1% bovine serum albumin (BSA: Amre-sco, solon, Ohio, USA) was added in an amount of 200 μL thereto and reacted at room temperature for 1 hour. For the measurement of anti-CII-specific IgG, IgG1, and IgG2a antibodies, the specimen was diluted at a 1:1,000 ratio, and in particular, TBS (pH 8.0) containing 1% BSA and 0.05% Tween 20 (Amresco) was used as the diluted solution. Then, the sera sample diluted in advance was added to each well in an amount of 50 μL and reacted at room temperature for 1 hour. […] The absorbance of the resultant was measured at 450 nm using the ELISA reader and the result of antibody measurement was indicated by absorbance itself.

[2] = system: bone marrow cells differentiating into osteoclasts; test: TRAP staining of bone marrow cells from arthritis animal model cultured with M-CSF and RANKL; format: in vivo, mouse; conditions: bone marrow cells from treated CIA mice, cultured with M-CSF and RANKL for 7 days, FIG. 4B
Protocol: as §1
(§2) Accordingly, the present inventors isolated bone marrow cells from the joint of the animal model with arthritis, cultured the cells under the stimulation of M-CSF and RANKL for 7 days, and subjected them to TRAP staining using the leukocyte acid phosphatase Kit (387-A, Sigma, St. Louis, Mo., USA) according to the manufacturer's manual.

[3] = system: CD4 T cells isolated from human peripheral blood; test: Expression of IL-17 and Foxp3 by flow cytometer in human T cells; format: cell-based; conditions: condition of differentiating Th17 cells, flow cytometry, FIG. 6A
Protocol: The CD4 T cells isolated from human peripheral blood were treated with halofuginone under the condition of differentiating Th17 cells (anti-CD3 (0.5 μg/mL), anti-CD28 (0.5 μg/mL), anti-IFN-γ (10 μg/mL), anti-IL-4 (10 μg/mL), IL-6 (20 ng/mL), and IL-1β (10 ng/mL)) and cultured. Then, the cells were collected, washed with the FACs buffer for flow cytometry analysis, subjected to blocking at 4° C. for the inhibition of non-specific binding for 15 minutes, added with CD4 and CD25 (i.e., cell surface markers) along with anti-CD4-PerCP and anti-CD25-APC and reacted at 4° C. for 30 minutes, and washed with a perm wash buffer. After performing the Cytofix/cytoperm process at 4° C. for 20 minutes, the resultant was washed with the perm wash buffer. Anti Foxp3-FITC and anti IL-17 PE were added thereto, reacted at 4° C. for 30 minutes, and washed with the perm wash buffer. Upon completion of staining, the cells were analyzed using the fluorescentactivated cell sorter (FACs) regarding the expression levels of IL-17 cytokines and Foxp3 according to the halofuginone treatment.

[4] = system: mouse model with collagen-induced arthritis; test: Arthritis index score in mouse model with collagen-induced arthritis (CIA); format: in vivo
Protocol: as §1
To examine the therapeutic effect of treating halofuginone of the present invention on arthritis, the clinical score of the joint inflammation of the mouse prepared in Example <1-1> (the mouse with arthritis injected with halofuginone) was measured while observing the mouse. The group treated with a solution in which DMSO was diluted in saline was used as the control group.
The clinical score was evaluated using a clinical score system, in which the respective score for swelling and redness on toes or caudal regions was determined by observing daily the degree of the progress of the joint inflammation on the arthritis lesion of the mouse by the naked eye.

[5] = system: TRAP, NFATc1, b3 integrin, OSCAR, cathepsin K, and MMP9 mRNA; test: Real-time PCR of factors associated with osteoclast differentiation in bone marrow cells of arthritis animal model; format: in vivo, mouse; conditions: bone marrow cells of CIA mice, RANKL treatment, FIG. 4C
Protocol: as §1
The real-time PCR was performed using the LightCycler 2.0 System Instrument and the reaction compounds were prepared by mixing 1 μL of each cDNA, 10 μL of premix Ex Taq as an enzyme for the initiation, and each primer pair to a final volume of 20 μL using distilled water. The reaction conditions were: reacted at 95° C. for 10 minutes, followed by a total of 50 cycles consisting of denaturation at 95° C. for 10 seconds, annealing at 60° C. for 5 seconds, and extension at 72° C. for 10 seconds. The values of cycle threshold (Ct) were analyzed and the amount of mRNA expression for each target was indicated in terms of the amount of beta-actin mRNA expression and the relative quantity. The primers used are shown below.
as §2
The primers used are shown below.

## O=C(C[C@H]1NCCC[C@@H]1O)Cn1cnc2cc(Br)c(Cl)cc2c1=O (racemic) [halofuginone]
[1]
  concentration of IgG1 within the sera: significantly decreased
  concentration of IgG2a within the sera: significantly decreased
  concentration of IgG within the sera: significantly decreased
[2]
  number of TRAP positive cells: decreased
[3]
  number of Th17 cells: reduces
  number of Treg cells: increasing
[4]; CIA DBA/1J mice, 100 and 500 μg/kg intraperitoneally at 3 day intervals, vs DMSO in saline control, FIG. 1A
  arthritis index score: decrease in the arthritis index score in a dose-dependent manner
[4]; CIA mice, 500 μg/kg
  arthritis lesion by the naked eye: no arthritis lesion at all
[5]
  mRNA expression level of MMP9: decreased
  mRNA expression level of NFATc1: decreased
  mRNA expression level of OSCAR: decreased
  mRNA expression level of TRAP: decreased
  mRNA expression level of b3 integrin: decreased
  mRNA expression level of cathepsin K: decreased
